According to patent US20210130445A1 (priority 2019, published 2021):

B1: erenumab (antibody, chains of the INN, looked up, V domains shown)
VH: QVQLVESGGGVVQPGRSLRLSCAASGFTFSSFGMHWVRQAPGKGLEWVAVISFDGSIKYSVDSVKGRFTISRDNSKNTLFLQMNSLRAEDTAVYYCARDRLNYYDSSGYYHYKYYGMAVWGQGTTVTVSS
VL: QSVLTQPPSVSAAPGQKVTISCSGSSSNIGNNYVSWYQQLPGTAPKLLIYDNNKRPSGIPDRFSGSKSGTSTTLGITGLQTGDEADYYCGTWDSRLSAVVFGGGTKLTVL

Legend:
[1] = set-up: species or system human; conditions: in vivo, sc
[2] = set-up: species or system human; unit not given here; conditions: in vivo

Row | Molecule | patient-reported pain [1] | duration of significant pain alleviation [2]
1 | C[C@@H]1[C@H](c2c(F)ccc(F)c2F)C[C@H](NC(=O)c2cnc3c(c2)C[C@@]2(C3)C(=O)Nc3ncccc32)C(=O)N1CC(F)(F)F [atogepant] | pain free | –
2 | onabotulinumtoxinA | pain free | one to about six
3 | B1 | – | one to about six
